Patent publication US10463609B2, “Dendrimers for sustained release of compounds” (WAYNE STATE UNIVERSITY, priority 2007, dated 2019)

Experiments:
[1] = test system: activated retinal microglial cells; assay: Quantitative histology of activated retinal microglial cells by ED-1 immunolabelling, FA IDDIs in RCS rats; format: in vivo, rat; settings: p<0.001
Protocol: FA suppressed neuroinflammation in RCS rats. In examining the mechanism of action of FA in preserving the ONL and ERG in the RCS rat, quantitative histological analysis of activated retinal microglial cells were performed using ED-1 immunolabelling. The photoreceptor layer and outer debris zone in RCS rats contain damaged lipid membranes that amplified photoreceptor damage by activating microglia to become phagocytic and release toxic substances such as tumor-necrosis factor alpha (TNF-α).

[2] = Drug release from PLGA microspheres; format: physicochemical; settings: ~5-10 μm PLGA microspheres containing 5% by mass of FA
Protocol: Drug release from PLGA microspheres was studied as follows. The drug release kinetics for free fluocinolone acetonide was analyzed for the same PLGA microspheres. For ˜5 -10 μm microspheres (containing 5% by mass of FA), the release was ˜0.5 μg/day (average) for the first thirty days, with a cumulative release of ˜30% in one month. There was 3% initial burst in the first three days. For dendrimer-FA conjugates, the initial burst may be capable of elimination due to their relatively larger size.

[3] = test system: RCS rats; assay: Electroretinography after single intravitreal injection of D-FA or free FA in RCS rats; format: in vivo, rat; settings: for ERG a-wave amplitude change, OD / ERG a-wave amplitude change, OS / ERG b-wave amplitude change, OD / ERG b-wave amplitude change, OS: Mean±Standard Error
Protocol: Neuroprotective effects of dendrimer-FA (D-FA) nanodevices were determined as follows. The neuroprotective effects of intravitreally-injected D-FA nanodevices to free-FA injections and IDDIs that release free-FA at a sustained daily rate were compared. […] Here the 1 μg and 3 μg refer to the FA content in D-FA. ONL cell densities were higher for D-FA than those measured for IDDIs and free FA injections.
The efficacy was analyzed using electroretinography (ERG) and histology.
Thirty albino RCS rats aged five weeks were divided into six equal groups. The experiments were terminated at nine weeks. Thus, the efficacy was evaluated over the four-week peak period of retinal degeneration in the RCS rats. The groups were: • 1. intravitreal injection of 3.0 μg dendrimer-conjugated fluocinolone acetonide (FA) in 1.0 μL of Phosphate Buffered Solution (PBS); • 2. intravitreal injection of 1.0 μg dendrimer-conjugated FA in 1.0 μL of PBS; • 3. intravitreal injection of 3.0 μg FA in 1.0 μL of PBS; • 4. intravitreal injection of 1.0 μg FA in 1.0 μL of PBS; • 5. intravitreal injection of 1 μL of PBS (vehicle control); • 6. light-exposed unoperated controls.

[4] = test system: RCS rats; assay: ERG b-wave amplitudes, FA IDDIs in RCS rats; format: in vivo, rat
Protocol: In other experiments, fluocinolone acetonide preserved electroretinogram b-wave amplitudes in treated eyes. The ONL data were consistent with ERG findings in the same animals (FIG. 9A). […] Although mean b-wave amplitude values in the eyes treated with FA 0.5 μg/day were quantitatively lower than the values in the eyes treated with FA 0.2 μg/day, there was no statistically significant difference between them (p=0.113).
Quantitatively, the left eye-ERG b-wave amplitudes of the FA 0.2 μg/day-treated group at the four-week time point were greater than those of control right and left eyes and placebo group-right and left eyes. […] The fellow-eye effects were attributed to drug-crossover. This is commonly seen in small mammals in which the volume of distribution is small.

[5] = Water solubility of the conjugate; format: physicochemical
Source text: The glutaric acid spacer relieves the steric hindrance on the dendrimer surface, enabling intracellular drug release.
The filtrate was dialysed against DMSO for three days by replacing DMSO after each day (dialysis membrane cutoff 1000 Da) to remove unreacted compounds. The dialyzed product was dried under vacuum to obtain conjugate. ^1H-NMR was used to characterize the conjugate.

[6] = test system: RCS rats; assay: Quantitative histology of ONL and INL cells, FA sustained-release intravitreal drug delivery implants (IDDIs) in RCS rats; format: in vivo, rat
Source text: According to this Example, the steroid fluocinolone acetonide (FA) was highly neuroprotective in slowing the retinal degeneration of RCS rats when delivered via sustained-release intravitreal drug delivery implants (IDDIs).

[7] = test system: Royal College of Surgeons retinal degeneration model (RCS) rats; assay: Retinal biodistribution after intravitreal injection, epi-fluorescence histology of retinal cryosections, RCS rats; format: in vivo, rat
Source text: Retinal biodistribution of free-FITC and dendrimer-conjugated FITC (D-FITC) in healthy Sprague-Dawley (SD) and Royal College of Surgeons retinal degeneration model (RCS) rats with active neuroinflammation was studied. Epi-fluorescence histology from retinal cryosections performed 24-hours and ten days after intravitreal injection is shown in […] as follows.
The first set of results is shown in FIGS. 10A-10F, epi-fluorescence histology from retinal cryosections performed twenty four hours and ten days after intravitreal injection, showing (FIG. 10A) D-FITC distribution in normal SD rats at twenty four hours, and (FIG. 10B) D-FITC distribution in the RCS retinal neurodegeneration model at twenty four hours. The concentration of D-FITC within the outer nuclear layer (denoted by *) and debris zone are significant findings.
The D-FITC localization in the outer-retina was further analyzed by immunohistochemical labeling for activated microglial cells, astrocytes, and Mueller cells and the photoreceptors (as shown in FIGS. 11A-11D, FIGS. 12A-12B, FIGS. 13A-13D, FIG. 14, and FIGS. 15A-15B). […] There was minimal accumulation in the other cells in the inner and outer retina. FIGS. 11A-11D show Microglial uptake of D-FITC. (FIG. 11A) ED-1 immuno-histochemical labeling of inner-retinal microglial cells; (FIG. 11B) D-FITC uptake within inner retinal microglia (60×); (FIG. 11C) outer retinal ED-1 labeled activated microglia; and (FIG. 11D) D-FITC uptake within activated microglia.

[8] = 1.0 μg intravitreal in 1.0 μL PBS, end of study vs beginning
[9] = 3.0 μg intravitreal in 1.0 μL PBS, end of study vs beginning
[10] = FA 0.5 μg/day IDDI, treated eyes, four-week study

Question: Which results are given for `CC1(C)O[C@@H]2C[C@H]3[C@@H]4C[C@H](F)C5=CC(=O)C=C[C@]5(C)[C@@]4(F)[C@@H](O)C[C@]3(C)[C@]2(C(=O)CO)O1` [FA, fluocinolone acetonide]?
Answer: activated microglial cell densities in the debris layer vs eyes with inactive IDDIs ([1]; FA 0.2 μg/day IDDI): nine-fold decrease; activated microglial cell densities in the debris layer vs non-surgical control eyes ([1]; FA 0.2 μg/day IDDI): five-fold decrease; debris zone activated microglial density vs eyes with inactive IDDIs ([1]; FA 0.5 μg/day IDDI): seven times lower; debris zone activated microglial density vs non-surgical control eyes ([1]; FA 0.5 μg/day IDDI): four times lower; release rate (average) ([2]; first thirty days): ~0.5 µg/day; initial burst ([2]; first three days): 3%; cumulative release ([2]; in one month): ~30%; ERG a-wave amplitude change, OD [3, 8]: −41.9 ± 13.4%; ERG a-wave amplitude change, OS [3, 8]: −47.8 ± 7.7%; ERG b-wave amplitude change, OD [3, 8]: −64.2 ± 8.6%; ERG b-wave amplitude change, OS [3, 8]: −55.6 ± 3.6%; ERG a-wave amplitude change, OD ([3]; 3.0 μg intravitreal in 1.0 μL PBS, end of study (9 weeks of age) vs beginning (5 weeks), loss (−)/gain (+) from initial amplitude): −12.5 ± 28.8%; ERG a-wave amplitude change, OS [3, 9]: −10.5 ± 30.1%; ERG b-wave amplitude change, OD [3, 9]: −42.6 ± 3.3%; ERG b-wave amplitude change, OS [3, 9]: −40.8 ± 3.5%; end-point ERG a-wave (photoreceptor response) amplitudes ([3]; at nine weeks of age, right vs left eyes): not true; mean four-week postoperative ERG b-wave amplitudes, treated eyes ([4]; 0.2 μg/day and 0.5 μg/day FA IDDIs, p<0.001): significantly greater than those of the unoperated control and placebo-treated eyes; mean ERG b-wave amplitudes of left (fellow) eyes ([4]; FA 0.2 μg/day IDDI group vs placebo-treated or control eyes): No statistically significant differences; mean ERG b-wave amplitudes of left (fellow) eyes ([4]; FA 0.5 μg/day IDDI group, four weeks, cross-over effect): significantly different from those of right and left eyes of unoperated control animals; solubility in water [5]: not water soluble at comparable concentrations; ONL cell densities relative to inactive IDDI group ([6]; FA 0.2 μg/day IDDI, treated eyes, four-week study): 4.85±0.24 times; ONL cell densities relative to non-surgical controls ([6]; FA 0.2 μg/day IDDI, treated eyes, four-week study, nine-week RCS rats): 2.38±0.12 times; ONL counts relative to eyes that received inactive IDDIs [6, 10]: 3.56±0.17 times; ONL counts relative to non-surgical control eyes [6, 10]: 1.78±0.21 times; inner nuclear layer cell counts between groups ([6]; FA 0.2 and 0.5 μg/day IDDIs vs inactive implants and non-surgical controls): No significant differences

Question: For fluorescein isothiocyanate [Free-FITC], which “retinal distribution at 24 hours” value ([7]; RCS rats, 24 hours after intravitreal injection) is on record?
Answer: uniformly distributed

Question: What about the “retinal retention at ten days” value ([7]; RCS rats, ten days after intravitreal injection) of the same compound?
Answer: cleared from the retina

Question: And the “FITC fluorescence in the retinal pigment epithelium (RPE)” value ([7]; after intravitreal injection, 24 hours, similar at ten days)?
Answer: No FITC fluorescence was observed
